Values quoted from earlier work as cited in patent US20090297596A1, “Nanoparticulate and Controlled Release Compositions Comprising a Platelet Aggregation Inhibitor” (ELAN PHARMA INTERNATIONAL LIMITED, priority 2005, published 2009).
Like-named read-outs stand apart in the source and are kept apart here.

O=C1CCc2cc(OCCCCc3nnnn3C3CCCCC3)ccc2N1 [Cilostazol, 6-[4-(1-cyclohexyl-1H-tetrazol-5-yl)butoxy]-3,4-dihydro-2(1H)-quinolinone]
Inhibition of phosphodiesterase III (phosphodiesterase III): inhibits | Solubility (absolute ether): practically insoluble | Solubility (benzyl alcohol): soluble | Solubility (chloroform): freely soluble | Solubility (dimethylformamide): soluble | Solubility (ethanol): slightly soluble | Solubility (methanol): slightly soluble | Solubility (mixture of chloroform and methanol (1:1)): soluble | Solubility (water): practically insoluble
